Literature values as cited in EP3305282A2, “COMPOSITION OF PRANLUKAST-CONTAINING SOLID PREPARATION WITH IMPROVED BIOAVAILABILITY AND METHOD FOR PREPARING SAME” (Sama Pharm Co., Ltd., priority 2015, dated 2016).

Settings: pranlukast drug substance, BCS Class II

O=C(Nc1cccc2c(=O)cc(-c3nnn[nH]3)oc12)c1ccc(OCCCCc2ccccc2)cc1 [Pranlukast, 4-oxo-8-[4-(4-phenylbutoxy)benzoylamino]-2-(tetrazol-5-yl)-4H-1-benzopyran hemihydrate]
solubility: 1.2 µg/mL
